Results on 2 molecules are retold here after patent US20230146239A1 (THE SCRIPPS RESEARCH INSTITUTE, priority 2020, published 2023).

Usually AUC stands for concentration integrated over time. For orientation: Cmax means the peak of the concentration-time curve. In general, Vd refers to the apparent volume that relates the amount in the body to the concentration in plasma or blood.

In brackets after ≈: the same amount, converted by molar mass. Read-outs that look alike come from different tables or passages of the source.

The conditions of data set [1]: mice, earlier studies; cited from earlier work.
Data set [2] concerns VanA VRE E. faecalis (BM 4166). As to the kind of experiment: Impact of added LTA, phosphate, POPE on antimicrobial activity (MIC). Format: cell-based, Enterococcus faecalis. As for the experimental part: (§1) When NaH2PO4 or POPE was used instead of LTA, 10% brain-heart infusion broth containing 0.002% Tween®-80 with 100 μg/mL NaH2PO4 or 100 μg/mL POPE was used as the culture medium used for serial dilution. When additional G3 (H2N^+(CH2)3NHC(NH2)═NH2^+.2TFA) or Mg^2+ was used, 10% brain-heart infusion broth containing 0.002% Tween®-80 with 100 μg/mL G3 or 100 μg/mL MgCl2 and 100 μg/mL lipoteichoic acid was used as the culture medium for serial dilution of study group, 10% brain-heart infusion broth containing 0.002% Tween®-80 with 100 μg/mL G3 was used as the culture medium for serial dilution of control group.

Data set [3] concerns VanA VRE E. faecalis BM 4166 and E. faecium ATCC BAA-2317. Format: cell-based, Enterococcus faecalis, Enterococcus faecium. The following applies: 10 μM added at 5 minutes. As for the experimental part:
The above bacterial solution was subjected to a subculture to obtain fresh mid-log phase bacterial cells (incubation time=6 hours). The bacterial suspension was diluted to a total volume of 7 mL with OD600=0.6.
After the cultured bacteria were harvested (3000 rpm, 4° C., 20 minutes), the white bacterial precipitate was washed and resuspended in 5 mM glucose and 5 mM HEPES buffer (1:1, 5.00 mL, pH=7.2).

For data set [4] the following is noted: mice, cited from earlier work; for AUC / CL / Cmax / Vd / t1/2 / tmax: iv, earlier study.
Data set [5] deals with Sensitive S. aureus ATCC 25923. As to the kind of experiment: In vitro antimicrobial microdilution assay (MIC). The data set is classed as cell-based, Staphylococcus aureus. The following applies: Staphylococcus aureus, ATCC25923, read-out: MIC, Sensitive S. aureus ATCC 25923. In general terms: Dilution methods test growth across graded concentrations, often in twofold steps.
Source text: (§2) The lowest concentration of antibiotic (in μg/mL) capable of eliminating cell growth in the wells is the reported MIC value.

Data set [6] relates to VanB E. faecalis ATCC 51299. As to the kind of experiment: microbe, parasite or virus in culture. Format: cell-based, Enterococcus faecalis. The conditions noted are these: Enterococcus faecalis, ATCC51299, read-out: MIC, VanB E. faecalis ATCC 51299.
Source text: as §2
For data set [7], the system named is VanA E. faecium (ATCC BAA-2317). As to the kind of experiment: In vitro antimicrobial microdilution assay (MIC). The following applies: Enterococcus faecium, ATCCBAA2317, read-out: MIC, VanA E. faecium ATCC BAA-2317. Format: cell-based, Enterococcus faecium.
Source text: as §2
Data set [8] concerns MRSA S. aureus ATCC 43300. As to the kind of experiment: microbe, parasite or virus in culture. Format: cell-based, Staphylococcus aureus. The following applies: Staphylococcus aureus, read-out: MIC, MRSA S. aureus ATCC 43300.
Source text: as §2
The subject of data set [9] is VanA VRE E. faecium (ATCC BAA2317). As to the kind of experiment: organism not typed. Format: cell-based, Enterococcus faecium. As for the experimental part:
as §1

For data set [10], the system named is VanA VRSA strain VRS2 (S. aureus). The conditions noted are these: mouse, in vivo; cited from earlier work.
The test system of data set [11] is VanA E. faecalis (ATCC BAA-2573). As to the kind of experiment: In vitro antimicrobial microdilution assay (MIC). The data set is classed as cell-based, Enterococcus faecalis. The conditions noted are these: Enterococcus faecalis, ATCCBAA2573, read-out: MIC, VanA E. faecalis ATCC BAA-2573.
Source text: as §2
For data set [12], the system named is VanA E. faecalis (BM 4166). As to the kind of experiment: In vitro antimicrobial microdilution assay (MIC). The data set is classed as cell-based, Enterococcus faecalis. The conditions noted are these: Enterococcus faecalis, read-out: MIC, VanA E. faecalis BM 4166.
Source text: as §2
Data set [13] concerns VanA E. faecalis BM 4166 or ATCC BAA-2573. As to the kind of experiment: microbe, parasite or virus in culture. Format: cell-based. The following applies: Enterococcus faecalis, ATCCBAA2573, read-out: MIC, VanA E. faecalis.
Source text: as §2
In another data set the test system is VanA E. faecium (TX2465). As to the kind of experiment: In vitro antimicrobial microdilution assay (MIC). Format: cell-based, Enterococcus faecium.
For data set [14], the system named is VanA E. faecalis (BM 4166). The following applies: earlier trimethylammonium cation modified analogues; cited from earlier work.
Data set [15] has as its system VanA E. faecium (ATCC BAA-2317). The conditions noted are these: earlier trimethylammonium cation modified analogues; cited from earlier work.
The test system of data set [16] is VanA VRE E. faecalis BM 4166 and E. faecium ATCC BAA-2317. The conditions noted are these: previously reported; C1-vancomycin even at 100 μM; cited from earlier work.

Source text for VanA E. faecium (TX2465): as §2

Turning to `CN[C@H](CC(C)C)C(=O)N[C@H]1C(=O)N[C@@H](CC(N)=O)C(=O)N[C@H]2C(=O)N[C@H]3C(=O)N[C@H](C(=O)N[C@H](C(=O)O)c4cc(O)cc(O)c4-c4cc3ccc4O)[C@H](O)c3ccc(c(Cl)c3)Oc3cc2cc(c3O[C@@H]2O[C@H](CO)[C@@H](O)[C@H](O)[C@H]2O[C@H]2C[C@](C)(N)[C@H](O)[C@H](C)O2)Oc2ccc(cc2Cl)[C@H]1O` [Compound 1, vancomycin], the MTD in [1] is listed as 300 mg/kg. The “decrease of antimicrobial activity by added LTA” value in [2] (100 μg/mL LTA, both VanA VRE strains) is “no difference”. Further, the MIC amounted to 250 µg/mL (≈ 173 µM) in data set [2] (read-out: MIC, +LTA); 250 µg/mL (≈ 173 µM) in data set [2] (read-out: MIC, −LTA); 0.5 µg/mL (≈ 0.345 µM) in [5]; 8 µg/mL (≈ 5.52 µM) in [6]; 250 µg/mL (≈ 173 µM) in data set [7]; 0.5 µg/mL (≈ 0.345 µM) in data set [8]. The MIC in [9] (read-out: MIC, +LTA) was determined as 250 µg/mL (≈ 173 µM); in [9] (read-out: MIC, −LTA), 250 µg/mL (≈ 173 µM); in [11], 125 µg/mL (≈ 86.3 µM); in [12] it was 250 µg/mL (≈ 173 µM); in [13], 250 µg/mL (≈ 173 µM); against VanA E. faecium (TX2465), 250 µg/mL (≈ 173 µM). In addition, the MIC with VanA E. faecium (TX2465) (Enterococcus faecium, read-out: MIC, VanA E. faecium TX2465) was found to be 250 µg/mL (≈ 173 µM). Also, the “bacterial cell membrane permeabilization” value in data set [3] is reported as “no permeabilization”. For the same molecule, the “terminal half-life (t1/2)” value in data set [4] (earlier studies) was 30 to 78 min. In addition, the AUC in [4] (10 mg/kg) was 21.8 µg·h/mL; in data set [4] (300 mg/kg) it was 935 µg·h/mL. Further, the values for the CL in data set [4] (10 mg/kg) and in data set [4] (300 mg/kg) were 7.67 mL/min/kg and 5.33 mL/min/kg, respectively. Also, the values for the Cmax in data set [4] (10 mg/kg) and in [4] (300 mg/kg) were 62.8 µg/mL and 1665 µg/mL, respectively. Moreover, the volume of distribution (Vd) was 0.34 L/kg in [4] (10 mg/kg) and 0.62 L/kg in [4] (300 mg/kg). The t1/2 in data set [4] (10 mg/kg) was 31.2 min; in data set [4] (300 mg/kg), 81 min. The tmax in data set [4] (10 mg/kg) and in [4] (300 mg/kg) was 4.98 min each time. Also, in data set [10], the “activity in the VRSA thigh infection model” value was “inactive”.

Consider `CN[C@H](CC(C)C)C(=O)N[C@H]1C(=O)N[C@@H](CC(N)=O)C(=O)N[C@H]2C(=O)NC3C(=O)N[C@H](C(=O)N[C@H](C(=O)NCCC[N+](C)(C)C)c4cc(O)cc(O)c4-c4cc3ccc4O)[C@H](O)c3ccc(c(Cl)c3)Oc3cc2cc(c3OC2OC(CO)C(O)[C@H](O)[C@@H]2O[C@H]2CC(C)(N)[C@H](O)[C@H](C)O2)Oc2ccc(cc2Cl)[C@H]1O` (some centres unmarked) [Compound 3, C1-vancomycin], for which, in [14], the “MIC, VanA E. faecalis BM 4166” value was 63 µg/mL. The MIC in [7] is 31 µg/mL; in data set [13], 63 µg/mL. In [15], the “MIC, VanA E. faecium ATCC BAA-2317” value was 31 µg/mL. The “bacterial cell membrane permeabilization” value in [16] is given as “weaker”.
